Measurements taken from ChEMBL document CHEMBL5523700, “Discovery and characterization of potent spiro-isoxazole-based cereblon ligands with a novel binding mode” (Eur J Med Chem, 2024).

Experiments:
[1] = Lipophilicity, logP of compound by HPLC analysis; format: physicochemical
MM1.S = assay: Cytotoxicity against human MM1.S cells assessed as cell survival at 30 uM incubated for 48 hrs by Cell Titer-Glo luminescent assay relative to control; format: functional; conditions: read-out: Survival
KMS-12-PE = assay: Cytotoxicity against human KMS-12-PE cells assessed as cell survival at 30 uM incubated for 48 hrs by Cell Titer-Glo luminescent assay relative to control; format: functional; conditions: read-out: Survival
MOLP-8 = assay: Cytotoxicity against human MOLP8 cells assessed as cell survival at 30 uM incubated for 48 hrs by Cell Titer-Glo luminescent assay relative to control; format: functional; conditions: read-out: Survival
[2] = Cytotoxicity against human PBMC cells assessed as cell survival at 30 uM incubated for 48 hrs by Cell Titer-Glo luminescent assay relative to control; format: toxicity, cell-based; conditions: read-out: Survival
[3] = Stability in human plasma assessed as half-life at 10 uM incubated upto 480 mins by HPLC analysis; format: ADME, cell-free
Protein cereblon = Protein cereblon (Homo sapiens, UniProt Q96SW2); assay: Binding affinity to human CRBN TBD assessed as inhibition constant using BODIPY-uracil as substrate by Microscale thermophoresis assay
Sequence of Protein cereblon (Q96SW2 whole entry): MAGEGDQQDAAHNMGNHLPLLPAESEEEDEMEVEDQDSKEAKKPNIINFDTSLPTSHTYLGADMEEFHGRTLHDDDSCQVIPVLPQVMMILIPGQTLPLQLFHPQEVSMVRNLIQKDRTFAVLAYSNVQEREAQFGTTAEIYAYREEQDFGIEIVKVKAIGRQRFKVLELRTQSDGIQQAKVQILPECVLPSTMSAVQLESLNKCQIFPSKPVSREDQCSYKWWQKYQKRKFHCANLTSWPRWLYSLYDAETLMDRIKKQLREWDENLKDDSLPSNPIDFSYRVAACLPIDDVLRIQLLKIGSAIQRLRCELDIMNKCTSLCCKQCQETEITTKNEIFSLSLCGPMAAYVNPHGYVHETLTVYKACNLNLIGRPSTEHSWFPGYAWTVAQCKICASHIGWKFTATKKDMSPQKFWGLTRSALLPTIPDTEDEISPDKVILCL

| Compound | logP [1] | viability at 30 µM (MM1.S) [%] | viability at 30 µM (KMS-12-PE) [%] | viability at 30 µM (MOLP-8) [%] | viability at 48 h, 30 µM [2] [%] | half-life at 10 µM [3] [h] | Ki (Protein cereblon) [µM] |
| --- | --- | --- | --- | --- | --- | --- | --- |
| O=C1CCC2(CC(c3ccccc3[N+](=O)[O-])=NO2)C(=O)N1 (stereo unspecified) | 1.23 | 81.9 | 88.5 | 75.5 | 71.5 | – | – |
| O=C1CCC2(CC(c3ccccc3Br)=NO2)C(=O)N1 (stereo unspecified) | 1.68 | 88.3 | 97.8 | 100 | 74.9 | – | – |
| O=C1CCC2(CC(c3ccccc3I)=NO2)C(=O)N1 (stereo unspecified) | 1.75 | 69.3 | 100 | 82.2 | 100 | – | – |
| O=C1CCC2(CC(C3CCCCC3)=NO2)C(=O)N1 (stereo unspecified) | 1.87 | 100 | 100 | 97 | 100 | – | – |
| CCCC1=NOC2(CCC(=O)NC2=O)C1 (stereo unspecified) | 0.87 | 76.7 | 100 | 100 | 100 | – | – |
| COc1ccc(C2=NOC3(CCC(=O)NC3=O)C2)c(OC)c1OC (stereo unspecified) | 2.67 | 78.7 | 72.2 | 66.3 | 82.4 | – | – |
| O=C1CCC2(CC(c3c(Cl)cccc3Cl)=NO2)C(=O)N1 (stereo unspecified) | 1.96 | 39.5 | 99.3 | 94.9 | 88.6 | – | – |
| O=C1CCC2(CC(c3ccc(C(=O)O)cc3)=NO2)C(=O)N1 (stereo unspecified) | – | 95.6 | 97.3 | 100 | 99.5 | – | – |
| CC(C)(C)C1=NOC2(CCC(=O)NC2=O)C1 (stereo unspecified) | 1.09 | 75.6 | 100 | 100 | 100 | – | – |
| O=C1CCC2(CC(c3ccccc3Cl)=NO2)C(=O)N1 (stereo unspecified) | 1.64 | 43.3 | 100 | 100 | 100 | 4.97 | – |
| CC1(C)CC(=O)NC(=O)C1 | – | – | – | – | – | – | 103 |
| O=C1CCC2(CC(c3ccccc3F)=NO2)C(=O)N1 (stereo unspecified) | 1.37 | 76.5 | 89.2 | 84.5 | 88.6 | – | – |
| O=C1CCC2(CC(C3CCCC3)=NO2)C(=O)N1 (stereo unspecified) | 1.28 | 62.2 | 92 | 93 | 89.9 | – | – |
| O=C1CCC2(CC(c3ccc(Cl)cc3Cl)=NO2)C(=O)N1 (stereo unspecified) | 2.68 | 71.7 | 100 | 100 | 100 | – | – |
| O=C1CCC2(CC(c3cccnc3)=NO2)C(=O)N1 (stereo unspecified) | – | 23.2 | 88.9 | 75.5 | 83.6 | – | – |
| COc1ccccc1C1=NOC2(CCC(=O)NC2=O)C1 (stereo unspecified) | 2.22 | 94.8 | 86.6 | 79.3 | 100 | – | – |
| CCC(CC)C1=NOC2(CCC(=O)NC2=O)C1 (stereo unspecified) | 1.6 | 89.1 | 98.9 | 94.1 | 91.2 | – | – |
| Nc1cccc2c1C(=O)N(C1CCC(=O)NC1=O)C2=O (stereo unspecified) [POMALIDOMIDE] | – | – | – | – | – | 3.03 | – |
| O=C1CCC(N2C(=O)c3ccccc3C2=O)C(=O)N1 (stereo unspecified) [THALIDOMIDE] | 0.3 | 11.4 | 44.1 | 31.6 | 94.2 | – | – |
